Reference: patent publication US12016896B2, “Dipeptidomimetics as inhibitors of human immunoproteasomes” (CORNELL UNIVERSITY, priority 2014, dated 2024)

Columns and labels:
[1] = target: human immunoproteasome β5i (Homo sapiens, UniProt P28062); test: IC50 against chymotryptic activity of human immunoproteasome (Hu i-20S, Ac-ANW-AMC substrate); assay type: biochemical; conditions: 0.4 nM Hu i-20S, 15 μM Ac-ANW-AMC, 0.02% SDS, pH 7.4, 37° C.
Description: (§1) Measurement of IC50s of Dipeptidomimetics Against Chymotryptic Activities of the Human Constitutive Proteasome and Immunoproteasome
(§2) Assays were conducted on a SpectraMax Gemini plate-reader from Molecular Devices (Sunnyvale, CA). In a black 96-well plate, 100 μL of pre-warmed assay mixture containing 0.4 nM Hu i-20S or 0.2 nM Hu c-20S, 15 μM N-acetyl-Alanine-Asparagine-Tryptophan-7-amino-4-methylcoumarin (Ac-ANW-AMC) (substrate for i-20S) or 25 μM N-succinyl-Leucine-Leucine-Valine-Tyrosine-7-amino-4-methylcoumarin (suc-LLVY-AMC) (substrate for c-20S), 0.02% SDS in buffer (50 mM HEPES, 0.5 mM EDTA, pH 7.4) was added to the wells that contained 1 μL inhibitor at 100× indicated concentrations in DMSO. The reaction progress of each well was recorded by monitoring fluorescence at 460 nm (λex=360 nm) for 120 minutes at 37° C. Velocities were derived from the initial linear range of the curves and the IC50s were obtained by plotting the percentage of inhibitor versus inhibitor concentrations (FIG. 1). […]

[2] = target: human constitutive proteasome β5c (Homo sapiens, UniProt P28074); test: IC50 against chymotryptic activity of human constitutive proteasome (Hu c-20S, suc-LLVY-AMC substrate); assay type: biochemical; conditions: 0.2 nM Hu c-20S, 25 μM suc-LLVY-AMC, 0.02% SDS, pH 7.4, 37° C.
Description: as §1, §2

| IC50 [1] | IC50 [2] | Structure (SMILES) |
| --- | --- | --- |
| 152 nM | > 100 µM | C[C@@H](CC(=O)NCc1cccc2ccccc12)NC(=O)[C@H](CC(=O)NC(C)(C)C)NC(=O)OC(C)(C)C [PK52272, tert-butyl ((S)-4-(tert-butylamino)-1-(((S)-4-((naphthalen-1-ylmethyl)amino)-4-oxobutan-2-yl)amino)-1,4-dioxobutan-2-yl)carbamate] |
| 14.5 nM | 34.7 µM | Cc1ccc(S(=O)(=O)N[C@H](CC(=O)N[C@@H](C)C(=O)NCc2cccc3ccccc23)CC(=O)NC(C)(C)C)cc1 [PK52279, (R)—N^1-(tert-butyl)-3-(4-methylphenylsulfonamido)-N^5—((S)-1-((naphthalen-1-ylmethyl)amino)-1-oxopropan-2-yl)pentanediamide] |
| 1600 nM | 13.9 µM | Cc1ccc(S(=O)(=O)N[C@@H](CCC(=O)NC(C)(C)C)CC(=O)N[C@@H](C)C(=O)NCc2cccc3ccccc23)cc1 [PK52290, (S)—N^6-(tert-butyl)-3-(4-methylphenylsulfonamido)-N^1—((S)-1-((naphthalen-1-ylmethyl)amino)-1-oxopropan-2-yl)hexanediamide] |
| 8680 nM | > 100 µM | Cc1ccc(S(=O)(=O)N[C@H](CC(=O)N[C@@H](C)CC(=O)NCc2cccc3ccccc23)CC(=O)NC(C)(C)C)cc1 [PK52291, (R)—N^1-(tert-butyl)-3-(4-methylphenylsulfonamido)-N^5—((S)-4-((naphthalen-1-ylmethyl)amino)-4-oxobutan-2-yl)pentanediamide] |
| 141 nM | – | C[C@@H](CC(=O)NCc1cccc2ccccc12)NC(=O)[C@H](CC(=O)NC(C)(C)C)NS(=O)(=O)C1CC1 [PK52295, (S)—N^4-(tert-butyl)-2-(cyclopropanesulfonamido)-N^1—((S)-4-((naphthalen-1-ylmethyl)amino)-4-oxobutan-2-yl)succinamide] |
| 671 nM | 13.4 µM | Cc1ccc(S(=O)(=O)N[C@@H](CCC(=O)NC(C)(C)C)C(=O)N[C@@H](C)C(=S)NCc2cccc3ccccc23)cc1 [PK53021] |
| 180 nM | 16.1 µM | Cc1cc(C(=O)N[C@@H](CC(=O)NC(C)(C)C)C(=O)N[C@@H](C)CC(=O)NCc2cccc3ccccc23)no1 [PKS2249, (S)—N^4-(tert-butyl)-2-(5-methylisoxazole-3-carboxamido)-N^1—((S)-4-((naphthalen-1-ylmethyl)amino)-4-oxobutan-2-yl)succinamide] |
| 45 nM | 32.2 µM | C[C@@H](CC(=O)NCc1cccc2ccccc12)NC(=O)[C@H](CC(=O)NC(C)(C)C)NC(=O)CCc1ccccc1 [PKS2251, (S)—N^4-(tert-butyl)-N^1—((S)-4-((naphthalen-1-ylmethyl)amino)-4-oxobutan-2-yl)-2-(3-phenylpropanamido)succinamide] |
| 6.4 nM | 8.81 µM | Cc1ccc(S(=O)(=O)N[C@@H](CC(=O)NC(C)(C)C)C(=O)N[C@@H](C)CC(=O)NCc2cccc3ccccc23)cc1 [PKS2252, (S)—N^4-(tert-butyl)-2-((4-methylphenyl)sulfonamido)-N^1—((S)-4-((naphthalen-1-ylmethyl)amino)-4-oxobutan-2-yl)succinamide] |
| 310 nM | 17.8 µM | C[C@@H](CC(=O)NCc1cccc2ccccc12)NC(=O)[C@H](CCC(=O)NC(C)(C)C)NC(=O)CCc1ccccc1 [PKS2253, (S)—N^5-(tert-butyl)-N^1—((S)-4-((naphthalen-1-ylmethyl)amino)-4-oxobutan-2-yl)-2-(3-phenylpropanamido)pentanediamide] |
| 11.2 nM | 16.6 µM | C[C@@H](CC(=O)NCc1cccc2ccccc12)NC(=O)[C@H](CC(=O)NC(C)(C)C)NS(=O)(=O)c1ccccc1 [PKS2260, (S)—N^4-(tert-butyl)-N^1—((S)-4-((naphthalen-1-ylmethyl)amino)-4-oxobutan-2-yl)-2-(phenylsulfonamido)succinamide] |
| 2260 nM | > 100 µM | C[C@H](NC(=O)C[C@H](CC(=O)NC(C)(C)C)NC(=O)CCc1ccccc1)C(=O)NCc1cccc2ccccc12 [PKS2278, (R)—N^1-(tert-butyl)-N^5—((S)-1-((naphthalen-1-ylmethyl)amino)-1-oxopropan-2-yl)-3-(3-phenylpropanamido)pentanediamide] |
| > 100000 nM | > 100 µM | C[C@@H](CC(=O)NCc1cccc2ccccc12)NC(=O)C[C@H](CC(=O)NC(C)(C)C)NC(=O)CCc1ccccc1 [PKS2292, (R)—N^1-(tert-butyl)-N^5—((S)-4-((naphthalen-1-ylmethyl)amino)-4-oxobutan-2-yl)-3-(3-phenylpropanamido)pentanediamide] |
| 799 nM | 7 µM | C[C@H](NC(=O)[C@H](CCC(=O)NC(C)(C)C)NC(=O)CCc1ccccc1)C(=S)NCc1cccc2ccccc12 [PKS3020] |
| 4.8 nM | 0.234 µM | C[C@@H](CC(=O)NCc1cccc2ccccc12)NC(=O)[C@H](CC(=O)NC(C)(C)C)NC(=O)C(=O)c1c[nH]c2ccccc12 [PKS3054] |
| > 100000 nM | > 100 µM | C[C@H](NC(=O)C[C@H](CC(=O)NC(C)(C)C)NC(=O)OC(C)(C)C)C(=O)Nc1ccccc1 [PKS3065] |
| 13700 nM | > 100 µM | C[C@@H](CC(=O)Nc1cccc2ccccc12)NC(=O)[C@H](CC(=O)NC(C)(C)C)NC(=O)CCc1ccccc1 [PKS3081] |
| 655 nM | 51.4 µM | CC(C)(C)NC(=O)C[C@H](NC(=O)CCc1ccccc1)C(=O)NCCC(=O)NCc1cccc2ccccc12 [PKS21220] |
